pIC50: −log10 of the molar value.
System: 922993-354-T-J3-PDC complex spheroid viability
Experiment: Anticancer human tumor 922993-354-T-J3-PDC patient-derived endometrial carcinoma cell line growth inhibition [POLQ]
Conditions: for pIC50: curve of first compound; for viability, T/C: stronger effect = lower value
Outline: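 PDC + HUVEC + MSC complex spheroids; POLQ inhibitors ± partner drugs; top conc. at/near clinical Cmax, else 10 microM (SN-38 1 microM), half-log dilutions; 37 degrees C, 5% CO2.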

[1] = second compound 0.0316 µM, first compound 0.00316 µM
[2] = second compound 0.0316 µM, first compound 0.01 µM
[3] = second compound 0.0316 µM, first compound 0.0316 µM
[4] = second compound 0.0316 µM, first compound 0.1 µM
[5] = second compound 0.1 µM, first compound 0.00316 µM
[6] = second compound 0.1 µM, first compound 0.01 µM
[7] = second compound 0.1 µM, first compound 0.0316 µM
[8] = second compound 0.1 µM, first compound 0.1 µM
[9] = second compound 0.316 µM, first compound 0.00316 µM
[10] = second compound 0.316 µM, first compound 0.01 µM
[11] = second compound 0.316 µM, first compound 0.0316 µM
[12] = second compound 0.316 µM, first compound 0.1 µM
[13] = second compound 1 µM, first compound 0.00316 µM
[14] = second compound 1 µM, first compound 0.01 µM
[15] = second compound 1 µM, first compound 0.0316 µM
[16] = second compound 1 µM, first compound 0.1 µM
[17] = second compound 3.16 µM, first compound 0.00316 µM
[18] = second compound 3.16 µM, first compound 0.01 µM
[19] = second compound 3.16 µM, first compound 0.0316 µM
[20] = second compound 3.16 µM, first compound 0.1 µM
[21] = second compound 10 µM, first compound 0.00316 µM
[22] = second compound 10 µM, first compound 0.01 µM
[23] = second compound 10 µM, first compound 0.0316 µM
[24] = second compound 10 µM, first compound 0.1 µM
[25] = second compound 0.0316 µM, first compound 0.316 µM
[26] = second compound 0.0316 µM, first compound 1 µM
[27] = second compound 0.1 µM, first compound 0.316 µM
[28] = second compound 0.1 µM, first compound 1 µM
[29] = second compound 0.316 µM, first compound 0.316 µM
[30] = second compound 0.316 µM, first compound 1 µM
[31] = second compound 1 µM, first compound 0.316 µM
[32] = second compound 1 µM, first compound 1 µM
[33] = second compound 3.16 µM, first compound 0.316 µM
[34] = second compound 3.16 µM, first compound 1 µM
[35] = second compound 10 µM, first compound 0.316 µM
[36] = second compound 10 µM, first compound 1 µM
[37] = second compound 0.0316 µM, first compound 3.16 µM
[38] = second compound 0.0316 µM, first compound 10 µM
[39] = second compound 0.1 µM, first compound 3.16 µM
[40] = second compound 0.1 µM, first compound 10 µM
[41] = second compound 0.316 µM, first compound 3.16 µM
[42] = second compound 0.316 µM, first compound 10 µM
[43] = second compound 1 µM, first compound 3.16 µM
[44] = second compound 1 µM, first compound 10 µM
[45] = second compound 3.16 µM, first compound 3.16 µM
[46] = second compound 3.16 µM, first compound 10 µM
[47] = second compound 10 µM, first compound 3.16 µM
[48] = second compound 10 µM, first compound 10 µM
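Note: spheroids exposed to the agents for one week.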
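Throughout, for viability, T/C: 100% = DMSO vehicle control wells.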

Work on CC[C@@]1(O)C(=O)OCc2c1cc1n(c2=O)Cc2cc3c(CN(C)C)c(O)ccc3nc2-1 + COC1C(OC(N)=O)C(O)C(Oc2ccc3c(O)c(NC(=O)c4ccc(O)c(CC=C(C)C)c4)c(=O)oc3c2C)OC1(C)C yielded a pIC50 (second compound 0.0316 µM) of 7.13, a pIC50 (second compound 0.1 µM) of 7.15 and a pIC50 (second compound 0.316 µM) of 7.08. For the same compound, the pIC50 (second compound 1 µM) was 7.15, the pIC50 (second compound 3.16 µM) was 7.15 and the pIC50 (second compound 10 µM) was 7.11. The viability, T/C (second compound 0.0316 µM, first compound 0.000316 µM) was 102%, the viability, T/C (second compound 0.0316 µM, first compound 0.001 µM) was 83% and the viability, T/C [1] was 98.2%. It also gave a viability, T/C [2] of 93.5%, a viability, T/C [3] of 76% and a viability, T/C [4] of 41.3%. For the same compound, the viability, T/C (second compound 0.1 µM, first compound 0.000316 µM) was 100%, the viability, T/C (second compound 0.1 µM, first compound 0.001 µM) was 101% and the viability, T/C [5] was 102%. It also gave a viability, T/C [6] of 98.8%, a viability, T/C [7] of 75.3% and a viability, T/C [8] of 39.1%. For the same compound, the viability, T/C (second compound 0.316 µM, first compound 0.000316 µM) was 100%, the viability, T/C (second compound 0.316 µM, first compound 0.001 µM) was 96.6% and the viability, T/C [9] was 100%. The viability, T/C [10] was 96.5%, the viability, T/C [11] was 85.9% and the viability, T/C [12] was 43.6%. The viability, T/C (second compound 1 µM, first compound 0.000316 µM) was 108%, the viability, T/C (second compound 1 µM, first compound 0.001 µM) was 98.7% and the viability, T/C [13] was 96.9%. For the same compound, the viability, T/C [14] was 94.6%, the viability, T/C [15] was 73.3% and the viability, T/C [16] was 39.2%. It also gave a viability, T/C (second compound 3.16 µM, first compound 0.000316 µM) of 93.9%, a viability, T/C (second compound 3.16 µM, first compound 0.001 µM) of 99% and a viability, T/C [17] of 89.7%. The viability, T/C [18] was 90.9%, the viability, T/C [19] was 79% and the viability, T/C [20] was 37.2%. The viability, T/C (second compound 10 µM, first compound 0.000316 µM) was 92.6%, the viability, T/C (second compound 10 µM, first compound 0.001 µM) was 76.9% and the viability, T/C [21] was 88.3%. For the same compound, the viability, T/C [22] was 84.4%, the viability, T/C [23] was 84.6% and the viability, T/C [24] was 40.7%.
For CCc1c2c(nc3ccc(O)cc13)-c1cc3c(c(=O)n1C2)COC(=O)[C@]3(O)CC + COC1C(OC(N)=O)C(O)C(Oc2ccc3c(O)c(NC(=O)c4ccc(O)c(CC=C(C)C)c4)c(=O)oc3c2C)OC1(C)C, the pIC50 (second compound 0.0316 µM) was 8.20, the pIC50 (second compound 0.1 µM) was 8.09 and the pIC50 (second compound 0.316 µM) was 8.09. It also gave a pIC50 (second compound 1 µM) of 8.13, a pIC50 (second compound 3.16 µM) of 8.15 and a pIC50 (second compound 10 µM) of 8.12. It also gave a viability, T/C [1] of 81.4%, a viability, T/C [2] of 28.9% and a viability, T/C [3] of 14.3%. For the same compound, the viability, T/C [4] was 11.3%, the viability, T/C [25] was 13.4% and the viability, T/C [26] was 15.7%. For the same compound, the viability, T/C [5] was 85.7%, the viability, T/C [6] was 42.6% and the viability, T/C [7] was 14.8%. For the same compound, the viability, T/C [8] was 12.7%, the viability, T/C [27] was 12.1% and the viability, T/C [28] was 17.8%. For the same compound, the viability, T/C [9] was 85.5%, the viability, T/C [10] was 42.5% and the viability, T/C [11] was 12%. The viability, T/C [12] was 11.8%, the viability, T/C [29] was 11.8% and the viability, T/C [30] was 19.4%. It also gave a viability, T/C [13] of 85.6%, a viability, T/C [14] of 37.9% and a viability, T/C [15] of 11.6%. The viability, T/C [16] was 9.81%, the viability, T/C [31] was 12.3% and the viability, T/C [32] was 16.5%. It also gave a viability, T/C [17] of 76.3%, a viability, T/C [18] of 38.5% and a viability, T/C [19] of 15.2%. For the same compound, the viability, T/C [20] was 11.2%, the viability, T/C [33] was 14.2% and the viability, T/C [34] was 19.2%. The viability, T/C [21] was 83.8%, the viability, T/C [22] was 38.8% and the viability, T/C [23] was 10%. For the same compound, the viability, T/C [24] was 10.3%, the viability, T/C [35] was 13.1% and the viability, T/C [36] was 17%.
With Nc1ccn(C2OC(CO)C(O)C2(F)F)c(=O)n1 (stereo not drawn) + COC1C(OC(N)=O)C(O)C(Oc2ccc3c(O)c(NC(=O)c4ccc(O)c(CC=C(C)C)c4)c(=O)oc3c2C)OC1(C)C the pIC50 (second compound 0.0316 µM) was over 7.50, the pIC50 (second compound 0.1 µM) was over 7.50 and the pIC50 (second compound 0.316 µM) was over 7.50. It also gave a pIC50 (second compound 1 µM) of over 7.50, a pIC50 (second compound 3.16 µM) of over 7.50 and a pIC50 (second compound 10 µM) of over 7.50. For the same compound, the viability, T/C [3] was 10.3%, the viability, T/C [4] was 10.7% and the viability, T/C [25] was 10.7%. For the same compound, the viability, T/C [26] was 10.6%, the viability, T/C [37] was 8.5% and the viability, T/C [38] was 8.9%. It also gave a viability, T/C [7] of 12.4%, a viability, T/C [8] of 12.8% and a viability, T/C [27] of 10.4%. For the same compound, the viability, T/C [28] was 9.28%, the viability, T/C [39] was 9% and the viability, T/C [40] was 8.97%. It also gave a viability, T/C [11] of 11.4%, a viability, T/C [12] of 11.6% and a viability, T/C [29] of 11.5%. It also gave a viability, T/C [30] of 8.83%, a viability, T/C [41] of 10.4% and a viability, T/C [42] of 9.46%. It also gave a viability, T/C [15] of 11.9%, a viability, T/C [16] of 8.68% and a viability, T/C [31] of 9.63%. The viability, T/C [32] was 10.4%, the viability, T/C [43] was 7.97% and the viability, T/C [44] was 9.31%. The viability, T/C [19] was 12.1%, the viability, T/C [20] was 8.92% and the viability, T/C [33] was 10.3%. For the same compound, the viability, T/C [34] was 10.4%, the viability, T/C [45] was 12.1% and the viability, T/C [46] was 8.3%. The viability, T/C [23] was 8.46%, the viability, T/C [24] was 10.1% and the viability, T/C [35] was 9.42%. For the same compound, the viability, T/C [36] was 8.26%, the viability, T/C [47] was 8.87% and the viability, T/C [48] was 8.43%.
For O=C(c1cc(Cc2n[nH]c(=O)c3ccccc23)ccc1F)N1CCN(C(=O)C2CC2)CC1 + COC1C(OC(N)=O)C(O)C(Oc2ccc3c(O)c(NC(=O)c4ccc(O)c(CC=C(C)C)c4)c(=O)oc3c2C)OC1(C)C, the pIC50 (second compound 0.0316 µM) was under 5.00, the pIC50 (second compound 0.1 µM) was under 5.00 and the pIC50 (second compound 0.316 µM) was under 5.00. For the same compound, the pIC50 (second compound 1 µM) was under 5.00, the pIC50 (second compound 3.16 µM) was under 5.00 and the pIC50 (second compound 10 µM) was under 5.00. The viability, T/C [3] was 110%, the viability, T/C [4] was 98% and the viability, T/C [25] was 101%. For the same compound, the viability, T/C [26] was 102%, the viability, T/C [37] was 103% and the viability, T/C [38] was 86.8%. The viability, T/C [7] was 115%, the viability, T/C [8] was 95% and the viability, T/C [27] was 106%. For the same compound, the viability, T/C [28] was 104%, the viability, T/C [39] was 89.8% and the viability, T/C [40] was 98.5%. The viability, T/C [11] was 94.6%, the viability, T/C [12] was 107% and the viability, T/C [29] was 82.9%. It also gave a viability, T/C [30] of 83.2%, a viability, T/C [41] of 93.5% and a viability, T/C [42] of 97.6%. The viability, T/C [15] was 95.2%, the viability, T/C [16] was 96.7% and the viability, T/C [31] was 86.4%. The viability, T/C [32] was 98%, the viability, T/C [43] was 98.1% and the viability, T/C [44] was 90.2%. For the same compound, the viability, T/C [19] was 90%, the viability, T/C [20] was 95.7% and the viability, T/C [33] was 90.6%. It also gave a viability, T/C [34] of 87%, a viability, T/C [45] of 95.7% and a viability, T/C [46] of 85.8%. It also gave a viability, T/C [23] of 88.3%, a viability, T/C [24] of 84% and a viability, T/C [35] of 87.8%. For the same compound, the viability, T/C [36] was 68.5%, the viability, T/C [47] was 87.5% and the viability, T/C [48] was 68.5%.
